Key:
[1] = system: IFNα-induced STAT phosphorylation (pSTAT5); assay: IFNα-induced STAT phosphorylation in human whole blood; type: cell-based; conditions: 1 h compound, 1000 U/mL IFNα A/D 15 min, CD3 positive population, read-out: Human Whole blood IFNa pSTAT5 IC50
Description: IFNα-Induced STAT Phosphorylation in Human Whole Blood
After an hour long incubation with compound, human whole blood (drawn with ACD-A as anticoagulant) was stimulated with 1000 U/mL recombinant human IFNα A/D (R&D Systems 11200-2) for 15 min. The stimulation was stopped by adding Fix/Lyse buffer (BD 558049). Cells were stained with a CD3 FITC antibody (BD 555916), washed, and permeabilized on ice using Perm III buffer (BD 558050). Cells were then stained with an Alexa-Fluor 647 pSTAT5 (pY694) antibody (BD 612599) for 60 min prior to analysis on the iQue Plus. The amount of pSTAT5 expression was quantitated by median fluorescence intensity after gating on the CD3 positive population.

[2] = in vitro; conditions: human, Caco-2, pH 7.4

Row | Compound | IC50 [1] [nM] | Papp A→B at 2 h, 3 μM [2] [×10⁻⁶ cm/s] | efflux ratio at 2 h, 3 μM [2] | Papp B→A at 2 h, 3 μM [2] [×10⁻⁶ cm/s]
1 | CNC(=O)c1nnc(NC(=O)C2CC2)cc1Nc1cccc(-c2cnn(CCF)n2)c1OC [Example 2, 6-cyclopropaneamido-4-({3-[2-(2-fluoroethyl)-2H-1,2,3-triazol-4-yl]-2-methoxyphenyl}amino)-N—(^2H3)methylpyridazine-3-carboxamide] | 30 | – | – | –
2 | CNC(=O)c1nnc(NC(=O)C2CC2)cc1Nc1cccc(-c2cnn(CC(F)F)n2)c1OC [Example 3, 6-cyclopropaneamido-4-({3-[2-(2,2-difluoroethyl)-2H-1,2,3-triazol-4-yl]-2-methoxyphenyl}amino)-N—(^2H3)methylpyridazine-3-carboxamide] | 220 | – | – | –
3 | [2H]C([2H])([2H])NC(=O)c1nnc(Nc2cc(C)n(C)n2)cc1Nc1cccc(-c2cnn(C)n2)c1OC [Example 6, 6-[(1,5-dimethyl-1H-pyrazol-3-yl)amino]-4-{[2-methoxy-3-(2-methyl-2H-1,2,3-triazol-4-yl)phenyl]amino}-N—(^2H3)methylpyridazine-3-carboxamide] | 20 | 7.4 | 0.9 | –
4 | [2H]C([2H])([2H])NC(=O)c1nnc(Nc2ccccn2)cc1Nc1cccc(-c2cnn(C)n2)c1OC [Example 8, 4-{[2-methoxy-3-(2-methyl-2H-1,2,3-triazol-4-yl)phenyl]amino}-N—(^2H3)methyl-6-[(pyridin-2-yl)amino]pyridazine-3-carboxamide] | 230 | 1.9 | < 0.8 | –
5 | CCn1ncc(-c2c(F)ccc(Nc3cc(NC(=O)C4CC4)nnc3C(=O)NC)c2OC)n1 [Example 10, 6-cyclopropaneamido-4-{[3-(2-ethyl-2H-1,2,3-triazol-4-yl)-4-fluoro-2-methoxyphenyl]amino}-N—(^2H3)methylpyridazine-3-carboxamide] | 290 | – | – | –
6 | CNC(=O)c1nnc(NC(=O)C2CC2)cc1Nc1cc(F)cc(-c2cnn(C3CC3)n2)c1OC [Example 12, 6-cyclopropaneamido-4-{[3-(2-cyclopropyl-2H-1,2,3-triazol-4-yl)-5-fluoro-2-methoxyphenyl]amino}-N—(^2H3)methylpyridazine-3-carboxamide] | 230 | – | – | –
7 | CNC(=O)c1nnc(NC(=O)[C@@H]2CC23CC3)cc1Nc1cccc(-c2cnn(C)n2)c1OC [Example 13, 4-{[2-methoxy-3-(2-methyl-2H-1,2,3-triazol-4-yl)phenyl]amino}-N—(^2H3)methyl-6-[(1R)-spiro[2.2]pentane-1-amido]pyridazine-3-carboxamide] | 170 | – | – | –
8 | CNC(=O)c1nnc(NC(=O)C2CC2)cc1Nc1nccc(-c2cnn(C3CC3)n2)c1OC [Example 14, 6-cyclopropaneamido-4-{[4-(2-cyclopropyl-2H-1,2,3-triazol-4-yl)-3-methoxypyridin-2-yl]amino}-N—(^2H3)methylpyridazine-3-carboxamide] | 190 | – | – | –
9 | CCn1ncc(-c2cc(Cl)cc(Nc3cc(NC(=O)C4CC4)nnc3C(=O)NC)c2OC)n1 [Example 15, 4-{[5-chloro-3-(2-ethyl-2H-1,2,3-triazol-4-yl)-2-methoxyphenyl]amino}-6-cyclopropaneamido-N—(^2H3)methylpyridazine-3-carboxamide] | 470 | – | – | –
10 | CNC(=O)c1nnc(NC(=O)C2CC2)cc1Nc1ccc(F)c(-c2cnn(C3CC3)n2)c1OC [Example 16, 6-cyclopropaneamido-4-{[3-(2-cyclopropyl-2H-1,2,3-triazol-4-yl)-4-fluoro-2-methoxyphenyl]amino}-N—(^2H3)methylpyridazine-3-carboxamide] | 1400 | – | – | –
11 | CNC(=O)c1nnc(NC(=O)C2CC2)cc1Nc1cc(C)cc(-c2cnn(C)n2)c1OC [Example 17, 6-cyclopropaneamido-4-{[2-methoxy-5-methyl-3-(2-methyl-2H-1,2,3-triazol-4-yl)phenyl]amino}-N—(^2H3)methylpyridazine-3-carboxamide] | 40 | – | – | –
12 | CNC(=O)c1nnc(NC(=O)C2CC2)cc1Nc1ccc(F)c(-c2cnn(C)n2)c1OC [Example 18, 6-cyclopropaneamido-4-{[4-fluoro-2-methoxy-3-(2-methyl-2H-1,2,3-triazol-4-yl)phenyl]amino}-N—(^2H3)methylpyridazine-3-carboxamide] | 230 | – | – | –
13 | [2H]C([2H])([2H])NC(=O)c1nnc(NC(=O)C2CC2)cc1Nc1cc(F)c(C)c(-c2cnn(C)n2)c1OC [Example 19, 6-(cyclopropanecarboxamido)-4-((5-fluoro-2-methoxy-4-methyl-3-(2-methyl-2H-1,2,3-triazol-4-yl)phenyl)amino)-N-(methyl-d3)pyridazine-3-carboxamide] | 430 | 18.8 | 0.7 | –
14 | [2H]C([2H])([2H])NC(=O)c1nnc(NC(=O)C2CC2)cc1Nc1cccc(-c2nn(C)nc2CC)c1OC [Example 20, 6-(cyclopropanecarboxamido)-4-((3-(5-ethyl-2-methyl-2H-1,2,3-triazol-4-yl)-2-methoxyphenyl)amino)-N-(methyl-d3)pyridazine-3-carboxamide] | 210 | 17 | 1.1 | –
15 | [2H]C([2H])([2H])NC(=O)c1nnc(NC(=O)C2CC2)cc1Nc1cc(CC)cc(-c2cnn(C)n2)c1OC [Example 21, 6-(cyclopropanecarboxamido)-4-((5-ethyl-2-methoxy-3-(2-methyl-2H-1,2,3-triazol-4-yl)phenyl)amino)-N-(methyl-d3)pyridazine-3-carboxamide] | 230 | 33.6 | 0.5 | –
16 | [2H]C([2H])([2H])NC(=O)c1nnc(NC(=O)C2CC2)cc1Nc1c(F)ccc(-c2cnn(C)n2)c1OC [Example 22, 6-(cyclopropanecarboxamido)-4-((6-fluoro-2-methoxy-3-(2-methyl-2H-1,2,3-triazol-4-yl)phenyl)amino)-N-(methyl-d3)pyridazine-3-carboxamide] | 330 | 51.1 | 0.7 | –
17 | [2H]C([2H])([2H])NC(=O)c1nnc(NC(=O)C2CC2)cc1Nc1cccc(-c2nn(C)nc2C)c1OC [Example 23, 6-(cyclopropane-carboxamido)-4-((3-(2,5-dimethyl-2H-1,2,3-triazol-4-yl)-2-methoxyphenyl)amino)-N-(methyl-d3)pyridazine-3-carboxamide] | 180 | 29.5 | 1.2 | –
18 | CNC(=O)c1nnc(NC(=O)N2CCC2)cc1Nc1cccc(-c2cnn(C)n2)c1OC [Example 51, 6-[(azetidine-1-carbonyl)amino]-4-{[2-methoxy-3-(2-methyl-2H-1,2,3-triazol-4-yl)phenyl]amino}-N—(^2H3)methylpyridazine-3-carboxamide] | 110 | – | – | –
19 | CNC(=O)c1nnc(NC(=O)C2CC2)cc1Nc1cccc(-c2cnn(C)n2)c1OC [Example 52, 6-cyclopropaneamido-4-({2-methoxy-3-[2-(^2H3)methyl-2H-1,2,3-triazol-4-yl]phenyl}amino)-N—(^2H3)methylpyridazine-3-carboxamide] | 20 | – | – | –
20 | CNC(=O)c1nnc(NC(=O)C2CC2)cc1Nc1cccc(-c2cnn(C3COC3)n2)c1OC [Example 53, 6-cyclopropaneamido-4-({2-methoxy-3-[2-(oxetan-3-yl)-2H-1,2,3-triazol-4-yl]phenyl}amino)-N—(^2H3)methylpyridazine-3-carboxamide] | 170 | – | – | –
21 | CNC(=O)c1nnc(NC(=O)C2CC2)cc1Nc1cccc(-c2cnn(C3CCC3)n2)c1OC [Example 54, 4-{[3-(2-cyclobutyl-2H-1,2,3-triazol-4-yl)-2-methoxyphenyl]amino}-6-cyclopropaneamido-N—(^2H3)methylpyridazine-3-carboxamide] | 490 | – | – | –
22 | CNC(=O)c1nnc(NC(=O)C2CC2)cc1Nc1ccc(C2CC2)c(-c2cnn(C)n2)c1OC [Example 55, 6-cyclopropaneamido-4-{[4-cyclopropyl-2-methoxy-3-(2-methyl-2H-1,2,3-triazol-4-yl)phenyl]amino}-N—(^2H3)methylpyridazine-3-carboxamide] | 480 | – | – | –
23 | CNC(=O)c1nnc(NC(=O)C2CC2)cc1Nc1cccc(-c2cnn(C)n2)c1OC(F)F [Example 56, 6-cyclopropaneamido-4-{[2-(difluoromethoxy)-3-(2-methyl-2H-1,2,3-triazol-4-yl)phenyl]amino}-N—(^2H3)methylpyridazine-3-carboxamide] | 290 | – | – | –
24 | CCN(C)C(=O)Nc1cc(Nc2nccc(-c3cnn(C)n3)c2OC)c(C(=O)NC)nn1 [Example 58, 6-{[ethyl(methyl)carbamoyl]amino}-4-{[3-methoxy-4-(2-methyl-2H-1,2,3-triazol-4-yl)pyridin-2-yl]amino}-N—(^2H3)methylpyridazine-3-carboxamide] | 230 | – | – | –
25 | CNC(=O)c1nnc(NC(=O)N(C)C(C)C)cc1Nc1nccc(-c2cnn(C)n2)c1OC [Example 59, 4-{[3-methoxy-4-(2-methyl-2H-1,2,3-triazol-4-yl)pyridin-2-yl]amino}-N—(^2H3)methyl-6-{[methyl(propan-2-yl)carbamoyl]amino}pyridazine-3-carboxamide] | 250 | – | – | –
26 | CNC(=O)c1nnc(NC(=O)C2CC2)cc1Nc1nccc(-c2cnn(C)n2)c1OC(F)F [Example 60, 6-cyclopropaneamido-4-{[3-(difluoromethoxy)-4-(2-methyl-2H-1,2,3-triazol-4-yl)pyridin-2-yl]amino}-N—(^2H3)methylpyridazine-3-carboxamide] | 130 | – | – | –
27 | CC(C)(C)NCC(O)COc1cccc2c1CC(O)C(O)C2 (stereo not shown) [Nadolol, reference compound] | – | 2 ± 0.9 | 1.3 | 2.5 ± 1.1

Reference: US11866414B2, “Substituted heterocyclic compounds” (BRISTOL-MYERS SQUIBB COMPANY, priority 2021, dated 2024)
